Source: ChEMBL document CHEMBL1141041, “Discovery of halogenated eurypamide B analogues as inhibitors of lipid droplet accumulation in macrophages” (Bioorg Med Chem Lett, 2005)

Test: Inhibition of lipid droplets accumulation in mouse peritoneal macrophages as a model of macrophage-derived foam-cell formation
Format: functional

C[C@@H](OCc1ccccc1)C1NC(=O)[C@@H](NC(=O)Oc2ccccc2)Cc2ccc(O)c(c2)Oc2ccc(cc2)C[C@@H](C(=O)O)NC1=O (stereo partly specified)
IC50: 3.1 µM

COC(=O)[C@@H]1Cc2ccc(cc2)Oc2cc(ccc2O)C[C@H](N)C(=O)N[C@@H]([C@@H](C)O)C(=O)N1
IC50: > 13.5 µM

COC(=O)[C@@H]1Cc2ccc(cc2)Oc2cc(ccc2O)C[C@H](N)C(=O)NC([C@@H](C)OCc2ccccc2)C(=O)N1 (stereo partly specified)
IC50: > 12.1 µM

C[C@@H](O)C1NC(=O)[C@@H](NC(=O)OC(C)(C)C)Cc2ccc(O)c(c2)Oc2ccc(cc2)C[C@@H](C(=O)O)NC1=O (stereo partly specified)
IC50: > 12.1 µM

C[C@@H](O)[C@@H]1NC(=O)[C@@H](N)Cc2ccc(O)c(c2)Oc2ccc(cc2)C[C@@H](C(=O)O)NC1=O
IC50: > 22.6 µM

C[C@@H](OCc1ccccc1)C1NC(=O)[C@@H](NC(=O)OC(C)(C)C)Cc2ccc(O)c(c2)Oc2ccc(cc2)C[C@@H](C(=O)O)NC1=O (stereo partly specified)
IC50: 3.2 µM
